How the values were obtained:
[1] = equal amounts of chelated copper mixed with water
[2] = dry powder rubbed on the surface of skin

## O=C(O)c1cccnc1.[Cu] [copper nicotinic acid]
[1]
  time to change to the oxidized blue color: a few minutes
[2]
  disappearance from the surface of skin when rubbed, dry powder: disappeared from the surface of the skin
Dry powder
  copper content by EDS, dry powder form: 22.90%
Wet sample
  copper content by EDS after sample is wetted: 21.7%
Wet versus dry sample
  change of EDS spectra after wetting: did not change significantly
